The record followed here is EP0605261B1, “Use of a flavone derivative as taste modifier and a method of modifying taste” (SAN-EI GEN F.F.I., INC., priority 1992, dated 1994).

Holding throughout (assay type): in vivo
Test [1] can be described thus: Sensory test (limiting method): enhancing the sourness of acid sugar solution. Details: key: (equivalent citric acid content / citric acid content with flavone) × 100. The settings on record: citric acid 1.000 (g), flavone derivative (I) 0.00001 (g), 8 panellers; for Value of enhancing the sourness Ascending system: ascending system (from low concentration); for Value of enhancing the sourness Descending system: descending system (from high concentration). As for the experimental part:
Compounds 1 to 11 of the flavone derivative (I) were used as a taste modifier to prepare acid sugar solution having compositions as follows:
As a control, 21 types of acid sugar solutions are used. In the control, the flavone derivative (I) is removed from the above composition and the content of citric acid is varied from 1.000 g to 1.500 g by 0.025 g.
Sensory tests were carried out by 8 trained panellers in accordance with a limiting method described in the Hand Book of Sensory evaluation, edited by Research Committee of sensory evaluation, Union of Japanese Scientists and Engineers, p.398 (1973) in use of acid sugar solutions containing respective flavone derivatives (I) and another acid sugar solutions having a various content of citric acid.
As for the content of citric acid, two types sensory tests were conducted, one was an ascending system (testing from solution with low concentration) and another was a descending system (testing from solution with high concentration).
The sensory evaluation was made by a value of enhancing the sourness. The value of enhancing the sourness was calculated by the following formula based on the content of citric acid in acid sugar solutions with varied concentration of citric acid, which has an equivalent stimulation with an acid sugar solution containing the flavone derivative (I) Value of enhancing the sourness = (content of citric acid in acid sugar solution sensed as an equivalent stimulation/content of citric acid in acid sugar solution containing the flavone derivative (I)) x 100 [formula]

Test [2] in a line: Sensory test: refreshness, its continuity and quality of taste (refreshing drink). The settings on record: 0.2 g flavor composition H (0.000001(g) Compound 11) vs G, 8 panellers. Here is the method:
Compound 11 of the flavone derivative (I) was used as a taste modifier. Refreshing drink containing the above flavor composition G (control) or H (containing the flavone derivative (I)) was prepared.
First, 10 g of fructose/glucose sugar solution, 0.1 g of citric acid (crystal), 0.2 g of the flavor composition G and 88.5 g of water were mixed to dissolve, followed by heating up to 93 °C, immediately transmitted to a bottle and sealed. Then, it was cooled in water, thereby preparing flavone derivative (I) free refreshing drink.
Alternatively, flavone derivative (I)-containing refreshing drink was prepared by the same method using the flavor composition H instead of the flavor composition G.
Sensory tests for obtained refreshing drink were carried out by 8 panellers comprised of 6 males and 2 females at the age from 20 to 40.

The nature of test [3]: Sensory test: body and deliciousness (casing boiled fish paste). The conditions noted are these: 0.0001 (g) Compound 11, 8 panellers. Here is the method: Compound 11 of the flavone derivative (I) was used as a taste modifier. Ground fish meat, salt, starch, water and the flavone derivative (I) were mixed. In accordance with a general method, casing boiled fish paste containing the flavone derivative (I) was prepared. Alternatively, flavone derivative (I) free casing boiled fish paste was prepared by the same method as a control.
Sensory tests for obtained casing boiled fish paste were conducted by 8 panellers comprised of 6 males and 2 females at the age from 20 to 40.

Test [4] can be described thus: Sensory test: sweetness and savor (ice cream). The conditions noted are these: 0.00001 w/w%, 10 panellers. Here is the method: Compound 2 of the flavone derivative (I) was used as a taste modifier. Ice cream containing 5 w/w% of sugar, 12 w/w% of fructose condensed milk and 10 w/w% of thick malt syrup as sweetening agents was used as a control. The control and ice cream containing 0.00001 w/w% of the flavone derivative (I) were made by a general method. Sensory tests for the sweetness and the savor were conducted by 10 trained panellers comprised of 6 males and 4 females at the age from 20 to 40.

Test [5] in a line: Sensory test: stimulative smell associated with acetic acid and viscosity (toothpaste with karaya gum). The settings on record: 0.0000001 part by weight of Compound 3 to 1 part, 9 panellers. Here is the method: Sorbitol was heated to 70°C, followed by adding sodium saccharine and silica slowly thereto and by stirring well. Then, water previously heated to 70°C, karaya gum, sodium lauryl sulfate and sodium hydroxide were added sequentially while stirring. Finally, flavor was added thereto to prepare toothpaste as a control. Alternatively, flavone derivative (I)-containing toothpaste was prepared by adding 0.0000001 part by weight of Compound 3 of the flavone derivative (I) to 1 part by weight of similarly prepared toothpaste.
Sensory tests for obtained toothpaste were conducted by 9 panellers comprised of 6 males and 3 females.

A short description of test [6]: Five points evaluation test: saltiness and brackish taste modifying effect, salt / sodium L-glutamate solution. The conditions noted are these: average points of 5 panellers (2: no changes); for Saltiness Modifying Effect: Salt. As for the experimental part:
Compound 3 of the flavone derivative (I) was used as a taste modifier. […] Alternatively, sample solutions were prepared by adding 1, 0.1, 0.01 ppm of Compound 3 to the standard solutions, respectively.
Sensory tests were conducted by 5 trained panellers to examine saltiness modifying effect (so called saltiness adapting effect) and brackish taste modifying effect.
Each sample solution was evaluated assuming that the standard solution has the point of 2.

The nature of test [7]: Sensory test: sweetness and savor (sponge cake). The conditions noted are these: 22 w/w% white sugar, 0.0001 w/w%, 10 panellers. As for the experimental part: Compound 4 of the flavone derivative (I) was used as a taste modifier and 22 w/w% of white sugar was used as a sweetening agent. In accordance with a general method, sponge cake containing 0.0001 w/w% of the flavone derivative (I) and flavone derivative (I) free sponge cake were prepared. Sensory tests for the sweetness and the savor were conducted by 10 panellers comprised of 6 males and 4 females at the age from 20 to 40.

The nature of test [8]: Sensory test: enhancing the sourness (refreshing drink). The settings on record: 0.0002 (g) Compound 4, vs control, 8 panellers. Here is the method: Compound 4 of the flavone derivative (I) was used as a taste modifier. Raw materials described below were mixed and stirred to dissolve. The solution was heated up to 93°C, immediately transmitted to a bottle and sealed. Then, it was cooled in water, thereby preparing refreshing drink having compositions as follows. A control was prepared by eliminating the compound 4 from the raw materials.
Sensory tests of obtained refreshing drink were carried out by 8 panellers.

The nature of test [9]: Sensory test: stimulative smell associated with acetic acid (mayonnaise). The conditions noted are these: 0.001 mg of Compound 8 added, 9 panellers. As for the experimental part:
Compound 8 of the flavone derivative (I) was used as a taste modifier. First, sugar, sodium glutamate and carrageenan were dissolved in water, followed by adding raw vinegar, salt and yolk. Then, corn salad oil was added portionwise while stirring, and emulsified by the use of colloid mill, thereby preparing mayonnaise as a control. Alternatively, flavone derivative (I)-containing mayonnaise was prepared by adding 0.001 mg of Compound 8 to mayonnaise that was similarly prepared.
Sensory tests for obtained mayonnaise were conducted by 9 panellers comprised of 6 males and 3 females.

“3,3',4',5,5',6,7,8-octamethoxyflavone [Compound 11]”: in test [1], the “Value of enhancing the sourness Ascending system” value is recorded as 125 and the “Value of enhancing the sourness Descending system” value came to 128. For the same compound, in [2], the “Continuity of refreshness: Those who sensed H additive is better” value was 8 number of people, the “Continuity of refreshness: Those who sensed no difference” value is 0 number of people, the “Quality of taste: Those who sensed H additive is better” value is given as 6 number of people and the “Quality of taste: Those who sensed no difference” value is recorded as 2 number of people. Also, in [2], the “Refreshness: Those who sensed H additive is better” value is on record as 7 number of people and the “Refreshness: Those who sensed no difference” value is listed as 1 number of people. Moreover, in test [3], the “Body: Those who sensed no difference” value is 2 number of people, the “Body: Those who sensed the flavone derivative (I) additive is better” value is 6 number of people, the “Deliciousness: Those who sensed no difference” value was 1 number of people and the “Deliciousness: Those who sensed the flavone derivative (I) additive is better” value is listed as 7 number of people. Moreover, in test [3], the “Quality of taste: Those who sensed no difference” value is 1 number of people and the “Quality of taste: Those who sensed the flavone derivative (I) additive is better” value is listed as 7 number of people.

Consider `COc1ccc(-c2cc(=O)c3c(OC)c(OC)c(OC)c(OC)c3o2)cc1OC` [Compound 2, 3',4',5,6,7,8-hexamethoxyflavone], for which the “the sweetness and the savor, as sensed by all the panellers” value in test [4] was “better than that of the control”. Also, in test [1], the “Value of enhancing the sourness Ascending system” value stood at 118 and the “Value of enhancing the sourness Descending system” value is reported as 123.

With `COc1ccc(-c2cc(=O)c3c(OC)c(OC)c(OC)c(OC)c3o2)cc1` [Compound 3, 4',5,6,7,8-pentamethoxyflavone], the “Value of enhancing the sourness Ascending system” value in test [1] turned out to be 120. In addition, the “Value of enhancing the sourness Descending system” value in [1] amounted to 123. In [5], the “Stimulative smell: Those who sensed no difference” value was 1 number of people. Besides, the “Stimulative smell: Those who sensed the flavone derivative (I) additive is reduced” value in test [5] is reported as 8 number of people. The “Brackish Taste Modifying Effect” value in test [6] (0.01 ppm, Salt 1 %) was found to be 3.6; in [6] (0.01 ppm, Salt 3 %), 3.6; in test [6] (0.01 ppm, Salt 5 %), 3.4; in [6] (0.01 ppm, Salt 10 %) it was 3.0; in test [6] (0.10 ppm, Salt 1 %), 4.0; in test [6] (0.10 ppm, Salt 3 %), 3.8. Also, the “Brackish Taste Modifying Effect” value in [6] (0.10 ppm, Salt 5 %) was 3.6; in test [6] (0.10 ppm, Salt 10 %), 3.4; in [6] (1.00 ppm, Salt 1 %), 4.4; in test [6] (1.00 ppm, Salt 3 %) it was 4.0; in test [6] (1.00 ppm, Salt 5 %), 4.0; in test [6] (1.00 ppm, Salt 10 %), 3.8. Besides, the “Saltiness Modifying Effect” value was found to be 3.6 in test [6] (0.01 ppm, sodium L-glutamate 1 %); 3.8 in [6] (0.01 ppm, sodium L-glutamate 3 %); 3.4 in [6] (0.01 ppm, sodium L-glutamate 5 %); 3.0 in test [6] (0.01 ppm, sodium L-glutamate 10 %); 4.0 in test [6] (0.10 ppm, sodium L-glutamate 1 %); 3.8 in test [6] (0.10 ppm, sodium L-glutamate 3 %). Further, the “Saltiness Modifying Effect” value in test [6] (0.10 ppm, sodium L-glutamate 5 %) amounted to 3.6; in test [6] (0.10 ppm, sodium L-glutamate 10 %), 3.4; in test [6] (1.00 ppm, sodium L-glutamate 1 %), 4.4; in [6] (1.00 ppm, sodium L-glutamate 3 %) it was 4.0; in test [6] (1.00 ppm, sodium L-glutamate 5 %) it was 4.0; in test [6] (1.00 ppm, sodium L-glutamate 10 %), 3.8.

For the compound `COc1ccc(-c2cc(=O)c3c(OC)cc(OC)c(OC)c3o2)cc1OC` [Compound 4, 3',4',5,7,8-pentamethoxyflavone], in test [1], the “Value of enhancing the sourness Ascending system” value amounted to 117 and the “Value of enhancing the sourness Descending system” value came out at 119. Moreover, in test [7], the “the sweetness and the savor, as sensed by all the panellers” value is recorded as “better than that of the control”. Besides, in [8], the quality of taste result is listed as “significantly improved”; the “taste of fruit juice and the sourness” value was “stronger than the control”.

In the case of `COc1ccc(-c2cc(=O)c3c(OC)cc(OC)cc3o2)cc1` [Compound 8, 4',5,7-trimethoxyflavone], in test [9], the “Stimulative smell: Those who sensed difference exists” value is reported as 7 number of people and the “Stimulative smell: Those who sensed no difference” value was 2 number of people. Besides, in test [1], the “Value of enhancing the sourness Ascending system” value is 118 and the “Value of enhancing the sourness Descending system” value amounted to 120.
